How the values were obtained:
[1] = molecular target: T1, CREB-binding protein [1085-1192] (UniProt Q92793); assay: Inhibitory Activity of Compounds on the Bromodomain (BRD) of CBP/EP300
T1 construct: 1085-1192
Description: (§1) A. Experimental MethodCBP and EP300AlphaScreen Test:1. Prepare 1× concentration of test buffer2. Preparation of compoundThe compound was firstly diluted in a ratio of 1:1000 relative to the final concentration using a Precision automatic sampler (by 3× gradient dilution method):1) 50 μL of compound solution with a storage concentration of 10 mM was transferred to A2 well of a 96-well plate using an Echo automatic sampler.2) 30 μL of DMSO was transferred to well A1, and wells A3 to A12 with Precision™.3) 15 μL solution was transferred from A2 to A3 by Precision, and this operation was sequentially repeated until 15 μL solution was transferred from well A10 to well A11. Thus, a 1:3 gradient dilution was completed.4) The compound plate was centrifuged at a speed of 1000 r/min for one minute.3. Preparation of test plate20 nL of solution was transferred from each concentration well of the compound plate to the test plate using an Echo automatic sampler: from well A1 of the preparation plate to wells A1 and A2 of the test plate, and from well A2 of the preparation plate to wells A3 and A4 of the test plate.4. Binding test of bromodomain (BRD)1) Preparation of 2-fold solution of protein and polypeptideThe protein and polypeptide were dissolved in a 1× concentration of detection buffer.2) 10 μL of protein and polypeptide solution was transferred to each well in columns 3 to 24 in the test plate, and 10 μL of 1× test buffer was transferred to wells in columns 1 to 2 in the test plate as negative control.3) The test plate was centrifuged at a speed of 1000 r/min for one minute.4) The test plate was incubated at room temperature for 15 min.5) A 2-fold receptor and donor solution was prepared by dissolving acceptor and donor beads with one-fold test buffer.6) 2-fold receptor and donor solutions were transferred to the test plate.15 μL of acceptor and donor solution was added and light was avoided.7) The test plate was centrifuged at a speed of 1000 r/min for one minute and then incubated at room temperature for 60 min.5. The Endpoints were Read in EnSpire and Alpha Modes.6. Curve fitting

[2] = molecular target: T2, Histone acetyltransferase p300 [1049-1156] (UniProt Q09472); assay: as above
T2 construct: 1049-1156
T2 sequence (Q09472 whole entry): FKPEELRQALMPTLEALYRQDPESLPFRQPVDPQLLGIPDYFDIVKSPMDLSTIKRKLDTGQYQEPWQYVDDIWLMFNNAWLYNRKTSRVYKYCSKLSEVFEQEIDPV
Description: as §1

T1 sequence (Q92793 1085-1192): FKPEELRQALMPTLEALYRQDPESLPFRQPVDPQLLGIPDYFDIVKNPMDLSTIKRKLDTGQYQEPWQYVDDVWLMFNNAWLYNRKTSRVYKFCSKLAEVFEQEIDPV

| SMILES | IC50 [1] [nM] | IC50 [2] [nM] |
| --- | --- | --- |
| COc1cccc(-c2nc3cc(C4C(C)=NOC4C)ccc3n2[C@H]2CC[C@H](OC)CC2)c1C1=CC(F)C(F)C=C1 (stereo partly specified) [US12497392, Compound 141] | 22 | 9.6 |
| CO[C@H]1C[C@@H](n2c([C@@H]3CCOC(=O)N3C3=CC(F)C(F)C=C3)nc3cc(C4C(C)=NOC4C)ccc32)C1 (stereo partly specified) [US12497392, Compound 143] | 4.7 | 2.7 |
| CO[C@H]1CC[C@H](n2c([C@@H]3CCOCC(=O)N3C3=CC(F)C(F)C=C3)nc3cc(C4C(C)=NOC4C)ccc32)CC1 (stereo partly specified) [US12497392, Compound 106] | 4.8 | 2.2 |
